Article PMC12766730, “Controlled Self-Immolative Release of β‑Lapachone via an Optimized para-Hydroxybenzyl Linker for Targeted Pancreatic Cancer Therapy” (Journal of the American Chemical Society, 2025)
Where two headings read alike, the source gives them in different places.

Experiments:
PANC-1 [1] = assay: Reactive oxygen species generation after 24 h treatment, PANC-1; type: cell-based
Text: (§1) 8 Target expression, ROS production, and quinone methide toxicity in PDAC Cell Lines. […] The A549 cell line was used as a positive control for NQO1 enzyme expression, and the HL-60 cell line was used as a positive control for 5-LO enzyme expression. For β-glucuronidase expression, two consecutive technical replicates are shown for each biological replicate, with all three biological replicates represented for both cell lines. […] Results were normalized to baseline cellular ROS activity as 0 and positive control tert-butyl hydrogen peroxide (TBHP) as 100. Adjusted p-values of 0.0012 (**) and <0.0001 (****) are shown for statistically significant comparisons.

AsPC-1 [2] = assay: PDAC cell viability after 72 h of treatment, AsPC-1; type: cell-based; conditions: Homo sapiens, ASPC1, exogenous β-glucuronidase added, average ± SD of biological replicates, read-out: AsPC-1 IC50
Procedure: (§2) All ortho-quinone prodrug derivatives were tested on two pancreatic cancer cell lines, PANC-1 and AsPC-1, to assess efficacy in cell killing (Figures , S88–89, S91, Tables , and S8.1). Exogenous β-glucuronidase was added to the cell media to mimic the extracellular enzyme present in the TME. […] Those derivatives with release rates slower than that of 16a, like 16e, had less efficacy in cells comparatively (Table ).
(§3) 7 PDAC cell viability with prodrug treatment. Representative PANC-1 (a) and AsPC-1 (b) cell viability data of four β-lapachone prodrug derivatives after 72 h of treatment with exogenous β-glucuronidase added. Panels (c, d) show the toxicity of functional prodrugs up to 100 μM in PANC-1 (c) and AsPC-1 (d) cells without exogenous β-glucuronidase enzyme present after 72 h incubation.
(§4) To assess the TW of the prodrug derivatives, we tested each of them in both the PANC-1 and AsPC-1 cell lines at up to 100 μM without the β-glucuronidase enzyme present. In agreement with the HPLC stability assay data, we saw no toxicity in all stable prodrug derivatives up to this concentration (Figure c,d). […] In comparison, all the stable glucuronide prodrug derivatives retained 100% viability at 100 μM. […] It is generally considered that a drug has a good therapeutic safety profile if the TI is greater than 10, which our best derivatives far exceed, signaling that our prodrug is safe to deliver systemically in future in vivo experiments and should not cause any adverse effects in areas where β-glucuronidase is not overexpressed. ,

AsPC-1 [3] = assay: Reactive oxygen species generation after 24 h treatment, AsPC-1; type: cell-based
Text: as §1

[4] = HPLC stability assay of prodrugs in buffers pH 3, 5, 7, 7.4 (PBS), 9 at 37 °C for 72 h without trigger; type: physicochemical; conditions: 37 °C, 72 h, pH 3–9
Procedure: The diastereomeric mixture of each β-glucuronide–PHB-β-lapachone prodrug (16a–j) and PAB derivative 22 were then tested for stability in citrate-phosphate buffers across a range of pHs (3, 5, 7, 7.4 (PBS), 9) via an HPLC stability assay. For derivatives 16a, 16b, 16d, 16e, 16h, and 16j, when no β-glucuronidase enzyme was added, both diastereomers of 16 were fully stable at 37 °C for 72 h (Figures a,d, S63, S64, S66–68, S71, and S73). […] This premature release was greatest at acidic pH 3 for 16g, with very minimal lapachone release detected at pH 5–9 (Figure c). The released lapachone was quantified and compared to the starting concentration of each prodrug to calculate the percent of the prodrug that had been prematurely released (Figures f,g, S76). […] Therefore, a trade-off exists between ring activation, improving the release rate from 3 while also decreasing prodrug stability, and it rendered 16g clinically disadvantageous.  5 Stability of prodrugs is pH dependent. The representative HPLC traces for (a) a stable prodrug 16a and (b) an unstable prodrug 16g are shown after incubation at 37 °C in pH 7.4 PBS buffer. […] (c) The area of the lapachone peak for 16g normalized to the IS was plotted, displaying substantial growth over time at pH 3. […] For panels c–g, each value is plotted as the mean ± SD of three replicates. The HPLC traces (Figures S50–S62) and peak area graphs (Figures S63–S75) for all other derivatives can be found in the Supporting Information. The stability of 26 was also evaluated from pH 3–9 (Figures d,f–h S86–S87). […] This degradation was the largest at pH 9, with a measurable decrease in the prodrug peak area after 72 h (Figure g). The lapachone released after 72 h was quantified using a standard curve (Tables S6.1–S6.2). At pH 3 and 5, approximately 0.2% of the total prodrug lapachone had been released.

PANC-1 [5] = assay: PDAC cell viability after 72 h of treatment, PANC-1; type: cell-based; conditions: Homo sapiens, PANC-1, exogenous β-glucuronidase added
Procedure: as §2, §3, §4

[6] = HPLC stability assay of prodrugs in buffers pH 3, 5, 7, 7.4 (PBS), 9 at 37 °C for 72 h without trigger; type: physicochemical; conditions: after dilution into aqueous buffer
[7] = design: method as in Gong et al.; conditions: pH 7.4; 5 equiv H2O2; ref Gong et al.; cited from earlier work
[8] = design: method as in Dunsmore et al.; conditions: k obs of compound 4 previously reported, ref Dunsmore et al., cited from earlier work
[9] = no extracellular enzyme, compared to β-lapachone

COc1cc(O[C@@H]2O[C@H](C(=O)O)[C@@H](O)[C@H](O)[C@H]2O)ccc1CC1(O)C(=O)C2=C(OC(C)(C)CC2)c2ccccc21 (mixture of isomers) [16f]
ROS generation without β-glucuronidase (PANC-1 [1]; [9]): significantly less ROS than β-lapachone alone | ROS generation with β-glucuronidase (PANC-1 [1]; β-glucuronidase added): restored generation of ROS | IC50 (AsPC-1 [2]): 2900 ± 60 nM | ROS generation without β-glucuronidase (AsPC-1 [3]; [9]): significantly less ROS than β-lapachone alone | ROS generation with β-glucuronidase (AsPC-1 [3]; β-glucuronidase added): restored generation of ROS | stability of the prodrug without triggering enzyme [4]: trace β-lapachone release was detected | IC50 (PANC-1 [5]; average ± SD of biological replicates, read-out: PANC-1 IC50): 700 ± 200 nM | IC50 (PANC-1 [5]; representative experiment, read-out: IC50 on PANC-1, representative viability data (Figure 7a)): 600 nM

CC1(C)CCC2=C(O1)c1ccccc1C(O)(Cc1ccc(B3OC(C)(C)C(C)(C)O3)cc1)C2=O (stereo not drawn) [compound 24]
time to complete hydrolysis into boronic acid 26 [6]: ≤ 5 min | time to complete release of 1 [7]: ≤ 2 h

CC1(C)CCC2=C(O1)c1ccccc1C(O)(Cc1ccc(N)cc1)C2=O (stereo not drawn) [compound 4]
half-life of quinone release at pH 5 ([8]; pH 5): 101 ± 7 h | t 1/2 at pH 6 (drug release half-life) ([8]; pH 6): 931 h
